This is an account of results in article PMC5344255, “Design, Synthesis and Biochemical Evaluation of Novel Selective Estrogen Receptor Ligand Conjugates Incorporating an Endoxifen-Combretastatin Hybrid Scaffold” (Biomedicines, 2016).

The subject of one assay is NCI-H332M. Put plainly: NCI 60 cell line screen. The class given is cell-based, human. The conditions noted are these: NCI-H332M (Non-Small Cell Lung Cancer).
Another assay relates to SR. Put plainly: NCI 60 cell line screen. To be noted: SR (Leukemia). The class given is cell-based, human.
The next assay relates to NCI 60 cell lines. The experiment in a line: NCI 60 cell line screen, values over the panel. In kind it is cell-based. The conditions noted are these: Homo sapiens.
A further assay has as its system NCI/ADR-RES. The experiment in a line: NCI 60 cell line screen. The class given is cell-based, human. The conditions noted are these: NCI/ADR-RES (Ovarian Cancer); one-dose 10 µM.
Another assay concerns SW-620. The experiment in a line: NCI 60 cell line screen. In kind it is cell-based, human. To be noted: SW-620 (Colon Cancer).
In a further assay the test system is HL-60 (TB). Put plainly: NCI 60 cell line screen. The class given is cell-based, human. The conditions noted are these: HL-60 (TB) (Leukemia).
A further assay concerns DU-145. The experiment in a line: NCI 60 cell line screen. In kind it is cell-based, human. To be noted: DU-145 (Prostate cancer).
Assay [1] concerns MDA-MB-231 human breast cancer cells. Put plainly: Lactate dehydrogenase (LDH) cytotoxicity assay in MDA-MB-231. In kind it is cell-based. To be noted: % cell lysis at 10 μM. Summed up: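 Cells seeded at 1 × 10^4 per well and grown 24 h, then dosed with compounds over 1 nM–50 μM. Cell lysis quantified as released cytoplasmic LDH using the CytoTox 96 nonradioactive cytotoxicity assay.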

Another assay concerns HOP-62. Put plainly: NCI 60 cell line screen. The conditions noted are these: HOP-62 (Non-Small Cell Lung Cancer). The class given is cell-based, human.

Molecules are shown by their SMILES. Like-named read-outs stand apart in the source and are kept apart here. Marks after values point to notes of the source that are not given here.

As to `CCC(=C(c1ccc(O)cc1)c1ccc(OCCN(C)C(=O)/C(=C/c2ccc(OC)c(O)c2)c2cc(OC)c(OC)c(OC)c2)cc1)c1ccc(O)cc1` (mixture of isomers) [Compound 28, (E)-N-(2-{4-[(E/Z)-1,2-Bis-(4-hydroxyphenyl)but-1-enyl]-phenoxy}ethyl)-3-(3-hydroxy-4-methoxyphenyl)-N-methyl-2-(3,4,5-trimethoxyphenyl)acrylamide], the GI50 is 2.02 µM with NCI-H332M (Homo sapiens, five-dose screen); 2.35 µM with SR (Homo sapiens, five-dose screen); 1.45 µM in the assay on NCI 60 cell lines (read-out: MG-MID, mean GI50); 1.62 µM in the assay with NCI 60 cell lines (read-out: log GI50 (mean) (converted)); 1.21 µM in the assay on SW-620 (Homo sapiens, five-dose screen); 1.4 µM with HL-60 (TB) (Homo sapiens, five-dose screen). Also, the GI50 with DU-145 (Homo sapiens, five-dose screen) worked out at 1.66 µM; in the assay on HOP-62 (Homo sapiens, five-dose screen) it was 2.86 µM. For the same compound, the “GI% (10^−5 M)” value is 81.7% with NCI-H332M (one-dose 10 µM); 69.03% with SR (one-dose 10 µM); 6.02% with NCI/ADR-RES; 81.32% with SW-620 (one-dose 10 µM); 100 ^d,f % in the assay with HL-60 (TB) (one-dose 10 µM); 100 ^d,o % with DU-145 (one-dose 10 µM). Moreover, the “GI% (10^−5 M)” value in the assay with HOP-62 (one-dose 10 µM) came out at 81.99%. Also, the CC50 with NCI 60 cell lines (in all but 4 cell lines of the panel, read-out: LC50 (the source's name)) was over 50 µM. Further, the inhibition at 10 µM with NCI 60 cell lines (read-out: mean growth inhibition value) is 98.7%. Besides, the “% Cell Death at 10 μM” value in assay [1] worked out at 15%.
